Experimental data: patent US11701315B2, “High energy visible light filter systems with yellowness index values” (High Performance Optics, Inc., priority 2006, dated 2023)

Legend:
[1] = in methanol, cited from earlier work
[2] = Transmission and absorption properties stated in the text for known lenses and dyes; assay type: physicochemical

Structure (SMILES) | maximum of excitation spectrum ([1]; monitored at 600 nm emission) [nm] | major peak of absorbance spectrum [1] [nm] | absorption maximum [2] [nm]
CC1=C(/C=C/C(C)=C/C=C/C(C)=C/c2cc(/C=C/C=C(C)/C=C/C3=C(C)CCCC3(C)C)cc[n+]2CCO)C(C)(C)CCC1 [A2E] | 418 | 435 | –
c1cc2cccc3c4cccc5cccc(c(c1)c23)c54 [perylene] | – | – | 437
